What is called pIC50 is the negative decadic logarithm of the IC50, by convention in mol/L.

pIC50: −log10 of the molar value. Bounds are passed on as bounds.

From US12662489B2 (Sitryx Therapeutics Limited, priority 2023, dated 2026) come the findings set out here.

Assay [1] concerns the target T1, MTHFD2 recombinant human enzyme (Homo sapiens, UniProt P13995).
T1 sequence (P13995 36-350): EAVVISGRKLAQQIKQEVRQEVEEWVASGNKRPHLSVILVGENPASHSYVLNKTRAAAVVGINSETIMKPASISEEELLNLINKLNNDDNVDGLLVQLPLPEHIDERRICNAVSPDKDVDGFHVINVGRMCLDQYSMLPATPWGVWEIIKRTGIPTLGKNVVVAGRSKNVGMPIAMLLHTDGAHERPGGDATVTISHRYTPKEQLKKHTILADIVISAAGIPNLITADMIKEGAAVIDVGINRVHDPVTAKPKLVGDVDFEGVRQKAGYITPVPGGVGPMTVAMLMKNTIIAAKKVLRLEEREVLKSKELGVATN
Nature of the assay: MTHFD2 inhibition assay (NAD(P)H-Glo luminescence). To be noted: for MTHFD1/MTHFD2 IC50 ratio: selectivity of MTHFD2 inhibition over MTHFD1, band.

For assay [2], the target named is T2, MTHFD1 recombinant human enzyme (Homo sapiens, UniProt P11586).
T2 sequence (P11586 2-291 limits assumed): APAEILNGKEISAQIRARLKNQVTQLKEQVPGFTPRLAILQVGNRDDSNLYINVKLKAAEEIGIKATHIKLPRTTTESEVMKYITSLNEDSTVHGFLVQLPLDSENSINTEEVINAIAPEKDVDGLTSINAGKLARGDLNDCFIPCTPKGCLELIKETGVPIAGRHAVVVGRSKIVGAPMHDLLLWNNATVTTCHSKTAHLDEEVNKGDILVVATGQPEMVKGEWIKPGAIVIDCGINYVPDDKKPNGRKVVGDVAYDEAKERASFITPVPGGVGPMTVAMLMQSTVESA
Nature of the assay: MTHFD1 inhibition assay (NAD(P)H-Glo luminescence). To be noted: MTHFD1 IC50, recombinant human enzyme 200 nM, NADP, band.

As for `COC[C@H]1CN(c2ccc3c4c(c(=O)oc3c2C)CN(C(=O)c2cc(N(C)C)c(C(=O)NS(=O)(=O)N3CCC5(CC3)CC5)cc2F)CC4)CCN1C` [Example 189, (R)-N-((6-azaspiro[2.5]octan-6-yl)sulfonyl)-2-(dimethylamino)-5-fluoro-4-(8-(3-(methoxymethyl)-4-methylpiperazin-1-yl)-7-methyl-5-oxo-1,3,4,5-tetrahydro-2H-chromeno[3,4-c]pyridine-3-carbonyl)benzamide], in assay [1], the pIC50 is 6.00 to 7.00 and the “MTHFD1/MTHFD2 IC50 ratio” value is listed as “H (>9.0 to 30)”. The pIC50 in assay [2] is 5.30 to 6.00.

`COC[C@H]1CN(c2cc(Cl)c3c4c(c(=O)oc3c2C)CN(C(=O)c2cc(N(C)C)c(C(=O)NS(=O)(=O)N3CCC[C@@H]3COC)cc2F)CC4)CCN1C` [Example 290, 4-(10-chloro-8-((R)-3-(methoxymethyl)-4-methylpiperazin-1-yl)-7-methyl-5-oxo-1,3,4,5-tetrahydro-2H-chromeno[3,4-c]pyridine-3-carbonyl)-2-(dimethylamino)-5-fluoro-N-(((R)-2-(methoxymethyl)pyrrolidin-1-yl)sulfonyl)benzamide]: the figures for the pIC50 in assay [1] and in assay [2] were 7.00 to 8.00 and 6.00 to 7.00, respectively. Further, the “MTHFD1/MTHFD2 IC50 ratio” value in assay [1] was “J (>30)”.

For `COC[C@H]1CN(c2ccc3c4c(c(=O)oc3c2Cl)CN(C(=O)c2ccc(C(=O)NS(=O)(=O)N(C)C(C)C)c(O[C@@H]3C[C@@H]5C[C@@H]5C3)c2F)CC4)CCN1C` [Example 65, 2-(((1R,3r,5S)-bicyclo[3.1.0]hexan-3-yl)oxy)-4-(7-chloro-8-((R)-3-(methoxymethyl)-4-methylpiperazin-1-yl)-5-oxo-1,3,4,5-tetrahydro-2H-chromeno[3,4-c]pyridine-3-carbonyl)-3-fluoro-N-(N-isopropyl-N-methylsulfamoyl)benzamide], in assay [1], the pIC50 is 7.00 to 8.00 and the “MTHFD1/MTHFD2 IC50 ratio” value is “F (<3)”. In addition, the pIC50 in assay [2] was 8.00 to 9.00.

Regarding `COC[C@H]1CN(c2ccc3c4c(c(=O)oc3c2C)CN(C(=O)c2ccc(C(=O)NS(=O)(=O)C3(C)CC3)c(OC3CCC3)c2)CC4)CCN1C` [Example 7, (R)-2-cyclobutoxy-4-(8-(3-(methoxymethyl)-4-methylpiperazin-1-yl)-7-methyl-5-oxo-1,3,4,5-tetrahydro-2H-chromeno[3,4-c]pyridine-3-carbonyl)-N-((1-methylcyclopropyl)sulfonyl)benzamide], in assay [1], the pIC50 was 7.00 to 8.00 and the “MTHFD1/MTHFD2 IC50 ratio” value was “F (<3)”. Also, the pIC50 in assay [2] was 7.00 to 8.00.

Take `COC[C@H]1CN(c2cc(C)c3c4c(c(=O)oc3c2C)CN(C(=O)c2ccc(C(=O)NS(=O)(=O)N3CCCC3)c(N3CC5CCC3C5)c2)CC4)CCN1C` (stereo partly drawn) [Example 115, 2-(2-azabicyclo[2.2.1]heptan-2-yl)-4-(8-((R)-3-(methoxymethyl)-4-methylpiperazin-1-yl)-7,10-dimethyl-5-oxo-1,3,4,5-tetrahydro-2H-chromeno[3,4-c]pyridine-3-carbonyl)-N-(pyrrolidin-1-ylsulfonyl)benzamide]: in assay [1], the pIC50 was 7.00 to 8.00 and the “MTHFD1/MTHFD2 IC50 ratio” value is reported as “F (<3)”. In assay [2], the pIC50 was 7.00 to 8.00.

Consider `COC[C@H]1CN(c2ccc3c4c(c(=O)oc3c2C)CN(C(=O)c2ccc(C(=O)NS(=O)(=O)C3(C)CC3)c(O[C@@H]3C[C@@H]5C[C@@H]5C3)c2F)CC4)CCN1C` [Example 59, 2-(((1R,3r,5S)-bicyclo[3.1.0]hexan-3-yl)oxy)-3-fluoro-4-(8-((R)-3-(methoxymethyl)-4-methylpiperazin-1-yl)-7-methyl-5-oxo-1,3,4,5-tetrahydro-2H-chromeno[3,4-c]pyridine-3-carbonyl)-N-((1-methylcyclopropyl)sulfonyl)benzamide], for which the pIC50 in assay [1] and in assay [2] was 8.00 to 9.00 in each case. Besides, the “MTHFD1/MTHFD2 IC50 ratio” value in assay [1] is “F (<3)”.

On to `COC[C@H]1CN(c2ccc3c4c(c(=O)oc3c2C)CN(C(=O)c2cc(F)c(C(=O)NS(=O)(=O)C3(C)CC3)c(N3CC5CC5C3)c2)CC4)CCN1C` (stereo partly drawn) [Example 26, 2-(3-azabicyclo[3.1.0]hexan-3-yl)-6-fluoro-4-(8-((R)-3-(methoxymethyl)-4-methylpiperazin-1-yl)-7-methyl-5-oxo-1,3,4,5-tetrahydro-2H-chromeno[3,4-c]pyridine-3-carbonyl)-N-((1-methylcyclopropyl)sulfonyl)benzamide], for which, in assay [1], the pIC50 was 8.00 to 9.00 and the “MTHFD1/MTHFD2 IC50 ratio” value is given as “F (<3)”. The pIC50 in assay [2] was 8.00 to 9.00.

`COC[C@H]1CN(c2cc(C)c3c4c(c(=O)oc3c2C)CN(C(=O)c2ccc(C(=O)NS(=O)(=O)N(C)C)c(N3CC5CCC3C5)c2)CC4)CCN1C` (stereo partly drawn) [Example 116, 2-(2-azabicyclo[2.2.1]heptan-2-yl)-N-(N,N-dimethylsulfamoyl)-4-(8-((R)-3-(methoxymethyl)-4-methylpiperazin-1-yl)-7,10-dimethyl-5-oxo-1,3,4,5-tetrahydro-2H-chromeno[3,4-c]pyridine-3-carbonyl)benzamide]: in assay [1], the pIC50 is 7.00 to 8.00 and the “MTHFD1/MTHFD2 IC50 ratio” value is listed as “F (<3)”. Moreover, the pIC50 in assay [2] was 8.00 to 9.00.

With `COC[C@H]1CN(c2cc(C)c3c4c(c(=O)oc3c2C)CN(C(=O)c2ccc(C(=O)NS(=O)(=O)N3CCCC3)c(N3C5CCC3CC5)c2F)CC4)CCN1C` [Example 97, (R)-2-(7-azabicyclo[2.2.1]heptan-7-yl)-3-fluoro-4-(8-(3-(methoxymethyl)-4-methylpiperazin-1-yl)-7,10-dimethyl-5-oxo-1,3,4,5-tetrahydro-2H-chromeno[3,4-c]pyridine-3-carbonyl)-N-(pyrrolidin-1-ylsulfonyl)benzamide], the pIC50 in assay [1] and in assay [2] was 7.00 to 8.00 each time. Moreover, the “MTHFD1/MTHFD2 IC50 ratio” value in assay [1] is on record as “F (<3)”.

With `COC[C@H]1CN(c2cc(C)c3c4c(c(=O)oc3c2C)CN(C(=O)c2ccc(C(=O)NS(=O)(=O)N(C)C)c(O[C@@H]3C[C@@H]5C[C@@H]5C3)c2F)CC4)CCN1C` [Example 11, 2-(((1R,3r,5S)-bicyclo[3.1.0]hexan-3-yl)oxy)-N-(N,N-dimethylsulfamoyl)-3-fluoro-4-(8-((R)-3-(methoxymethyl)-4-methylpiperazin-1-yl)-7,10-dimethyl-5-oxo-1,3,4,5-tetrahydro-2H-chromeno[3,4-c]pyridine-3-carbonyl)benzamide], in assay [1], the negative-log IC50 (pIC50) was 8.00 to 9.00 and the “MTHFD1/MTHFD2 IC50 ratio” value is “F (<3)”. Moreover, the pIC50 in assay [2] is 8.00 to 9.00.

As to `COC[C@H]1CN(c2cc(C)c3c4c(c(=O)oc3c2C)CN(C(=O)c2ccc(C(=O)NS(=O)(=O)N(C)C)c(N3CCCC(F)(F)C3)c2F)CC4)CCN1C` [Example 78, (R)-2-(3,3-difluoropiperidin-1-yl)-N-(N,N-dimethylsulfamoyl)-3-fluoro-4-(8-(3-(methoxymethyl)-4-methylpiperazin-1-yl)-7,10-dimethyl-5-oxo-1,3,4,5-tetrahydro-2H-chromeno[3,4-c]pyridine-3-carbonyl)benzamide], the pIC50 in assay [1] and in assay [2] was 8.00 to 9.00 in each case.

In the case of `CCOc1c(C(=O)NS(=O)(=O)N2CC3(CCC3)C2)ccc(C(=O)N2CCc3c(c(=O)oc4c(C)c(N5CCN(C)[C@@H](COC)C5)cc(C)c34)C2)c1F` [Example 233], the pIC50 in assay [1] and in assay [2] was 7.00 to 8.00 in each case. Further, in assay [1], the “MTHFD1/MTHFD2 IC50 ratio” value is listed as “F (<3)”.

For `COC[C@H]1CN(c2cc(C)c3c4c(c(=O)oc3c2C)CN(C(=O)c2ccc(C(=O)NS(=O)(=O)C3(C)CC3)c(N3C5CCC3CC5)c2F)CC4)CCN1C` [Example 73, (R)-2-(7-azabicyclo[2.2.1]heptan-7-yl)-3-fluoro-4-(8-(3-(methoxymethyl)-4-methylpiperazin-1-yl)-7,10-dimethyl-5-oxo-1,3,4,5-tetrahydro-2H-chromeno[3,4-c]pyridine-3-carbonyl)-N-((1-methylcyclopropyl)sulfonyl)benzamide], the pIC50 in assay [1] and in assay [2] was 8.00 to 9.00 throughout.

As to `COC[C@H]1CN(c2ccc3c4c(c(=O)oc3c2C)CN(C(=O)c2cc(N(C)C)c(C(=O)NS(=O)(=O)N3CCC5(CC3)CC5)cc2Cl)CC4)CCN1C` [Example 190, (R)-N-((6-azaspiro[2.5]octan-6-yl)sulfonyl)-5-chloro-2-(dimethylamino)-4-(8-(3-(methoxymethyl)-4-methylpiperazin-1-yl)-7-methyl-5-oxo-1,3,4,5-tetrahydro-2H-chromeno[3,4-c]pyridine-3-carbonyl)benzamide], the pIC50 in assay [1] is 6.00 to 7.00; in assay [2], under 5.30. The “MTHFD1/MTHFD2 IC50 ratio” value in assay [1] is on record as “H (>9.0 to 30)”.

With `COC[C@H]1CN(c2cc(C)c3c4c(c(=O)oc3c2C)CN(C(=O)c2ccc(C(=O)NS(=O)(=O)N3CCCC3)c(OC3CC3)c2F)CC4)CCN1C` [Example 212, (R)-2-cyclopropoxy-3-fluoro-4-(8-(3-(methoxymethyl)-4-methylpiperazin-1-yl)-7,10-dimethyl-5-oxo-1,3,4,5-tetrahydro-2H-chromeno[3,4-c]pyridine-3-carbonyl)-N-(pyrrolidin-1-ylsulfonyl)benzamide], the pIC50 in assay [1] is 8.00 to 9.00; in assay [2], 7.00 to 8.00. In addition, the “MTHFD1/MTHFD2 IC50 ratio” value in assay [1] is listed as “F (<3)”.
